Consider one compound from PMC5318439, “The Novel Toll-Like Receptor 2 Agonist SUP3 Enhances Antigen Presentation and T Cell Activation by Dendritic Cells” (Frontiers in Immunology, 2017).

Where a SMILES comes first, the peptide text is derived from it. The star is where a group is joined. X1 = CCCCCCCCCCCCCCNC(=O)OC[C@H](C*)OC(=O)NCCCCCCCCCCCCCC; Palmitoyl = CCCCCCCCCCCCCCCC(=O)*

Assay [1] in a line: TD antigen (NP-KLH) immunization and antibody titer analysis. Type of assay: in vivo, mice. Conditions: NP-KLH 5 µg per mouse i.p. with 2 nmol per mouse; serum ELISA weekly; vs Pam3. Here is the method:
Thymus-dependent antigen immunization and antibody titer analysis were performed as previously described ([43]). Briefly, wild-type (WT) mice were immunized by i.p. injection of TD antigen nitrophenyl-keyhole limpet hemocyanin (NP-KLH, 5 µg per mouse; Biosearch Technologies N-5060) alone, or mixed with SUP3 (2 nmol per mouse), Pam3 (2 nmol per mouse), or alum (3 µg per mouse; Thermo 77161). Serum was harvested every week, and nitrophenyl-specific IgM and IgG were determined by ELISA. IgM and total IgG were captured by nitrophenyl 30mer (Biosearch Technologies N-5050H), and high affinity IgG was captured by nitrophenyl 8mer (Biosearch Technologies N-5050L) pre-coated ELISA plates (Corning 9018).
Figure 5 SUP3 enhanced antigen presentation ability of CD11b^+ conventional dendritic cells (cDCs) and production of antibodies against thymus-dependent (TD) antigens. […] Three days after immunization, division of OT-II CD4^+ T cells from inguinal lymph nodes were analyzed by flow cytometry (B). Absolute numbers of proliferated OT-II CD4^+ T cells were calculated in (C). […] Cells were then thoroughly washed and cocultured with CFSE-stained OT-II CD4^+ T cells for 4 days and analyzed by flow cytometry. (D) The division of OT-II cells was measured by reduced level of CFSE-labeling. (E) Absolute numbers of proliferated T cells from (D) were calculated. […]

Assay [2] concerns splenic B cells. Nature of the assay: Total IgM production by B cells in vitro. Type of assay: cell-based, mice. Conditions: 200 nM, 3 or 5 days, ELISA; vs Pam3. From the text: Splenic DCs were purified as described previously ([37]). CD8^+ cDCs expanded by B16-Flt3L inoculation were enriched, and then CD8^+ cDCs were positively sorted by MACS technology (Miltenyi Biotec). Splenic B cells were purified through negative selection by Streptavidin-MicroBeads (Miltenyi Biotec 130-048-102) combined with different antibodies cocktail to exclude non-B cells. The antibodies cocktail was composed of biotinylated antibodies against CD4 (T cells and DCs) (eBioscience, clone GK1.5), CD8 (T cells and DCs) (eBioscience, clone 53-6.7), CD43 (T cells, monocytes, granulocytes) (eBioscience, clone eBioR2/60), and Ter119 (erythrocytes) (eBioscience, clone TER119). B cells were further purified through MACS LS column (Miltenyi Biotec 130-042-401).
Splenic DCs (5 × 10^5 cells/mL) were stimulated by Pam3 (200 nM), SUP3 (200 nM), or CpG ODN 1668 (20 nM; Adipogen IAX-200-001) in the GM-CSF (20 ng/mL) supplemented medium for indicated periods. […] Cytokines (IL-6, eBioscience 88-7064; TNFα, eBioscience 88-7324; IL-12p40, BioLegend 431604), chemokine (MIP1α, R&D Systems DY450-05), and total IgM (eBioscience, 88-50470) were quantified by ELISA kits following the instructions of manufacturers.
Figure 7 SUP3 promoted stronger B cell activation in vitro. […] (B) Supernatants were harvested 3 or 5 days post-stimulation, and total IgM in the supernatant was determined by ELISA. […]

Regarding `CCCCCCCCCCCCCCCC(=O)N[C@@H](CSC[C@@H](COC(=O)NCCCCCCCCCCCCCC)OC(=O)NCCCCCCCCCCCCCC)C(=O)NCC(=O)N[C@@H](CCCCN)C(=O)N[C@@H](CCCCN)C(=O)N[C@@H](CCCCN)C(=O)O` [SUP3, (2S,5S,8S,14R,18R)-2,5,8-tris(4-aminobutyl)-4,7,10,13,21-pentaoxo-14-palmitamido-18-((tetradecylcarbamoyl)oxy)-20-oxa-16-thia-3,6,9,12,22-pentaazahexatriacontan-1-oic acid] (Palmitoyl-C(X1)GKKK-OH), the “titers of TD antigen-specific antibodies (IgM, total IgG, high affinity IgG)” value in assay [1] was “higher titers”. In addition, the “antigen-independent production of IgM by B cells” value in assay [2] was “more”.
